Test results published in patent publication US20160045442A1, “STABLE PHARMACEUTICAL COMPOSITIONS OF MESALAMINE” (CADILA HEALTHCARE LIMITED, priority 2014, published 2016).

Experiment: Bulk density and tapped density of mesalamine powder (USP Test 616)
Assay type: physicochemical
Conditions: mesalamine used to prepare the composition as per Example 3
From the text: Important physicochemical characteristics of powders are the density properties such as bulk and tapped density, weight variation and flow properties such as angle of repose. Bulk density is the undisturbed packing density of that substance and tapped density relates to the packing density after tapping a bed of substance until no change in the packing density is seen. Bulk density and tapped density, can be determined using compendial bulk density apparatus, such as the method given in Test 616 “Bulk Density and Tapped Density,” United States Pharmacopeia 29, United States Pharmacopeial Convention, Inc., Rockville, Md., 2005 (“USP”).

- bulk density: 0.483 g/mL
- tapped density: 0.694 g/mL
SMILES: Nc1ccc(O)c(C(=O)O)c1 [Mesalamine, mesalamine]
